Legend:
E. coli gyrase = E. coli gyrase (Escherichia coli, UniProt P0AES4+P0AES6); format: biochemical
B. anthracis gyrase = format: biochemical, Bacillus anthracis
M. tuberculosis gyrase = settings: cited from earlier work

Chain of E. coli gyrase (P0AES4 whole entry, one chain of several): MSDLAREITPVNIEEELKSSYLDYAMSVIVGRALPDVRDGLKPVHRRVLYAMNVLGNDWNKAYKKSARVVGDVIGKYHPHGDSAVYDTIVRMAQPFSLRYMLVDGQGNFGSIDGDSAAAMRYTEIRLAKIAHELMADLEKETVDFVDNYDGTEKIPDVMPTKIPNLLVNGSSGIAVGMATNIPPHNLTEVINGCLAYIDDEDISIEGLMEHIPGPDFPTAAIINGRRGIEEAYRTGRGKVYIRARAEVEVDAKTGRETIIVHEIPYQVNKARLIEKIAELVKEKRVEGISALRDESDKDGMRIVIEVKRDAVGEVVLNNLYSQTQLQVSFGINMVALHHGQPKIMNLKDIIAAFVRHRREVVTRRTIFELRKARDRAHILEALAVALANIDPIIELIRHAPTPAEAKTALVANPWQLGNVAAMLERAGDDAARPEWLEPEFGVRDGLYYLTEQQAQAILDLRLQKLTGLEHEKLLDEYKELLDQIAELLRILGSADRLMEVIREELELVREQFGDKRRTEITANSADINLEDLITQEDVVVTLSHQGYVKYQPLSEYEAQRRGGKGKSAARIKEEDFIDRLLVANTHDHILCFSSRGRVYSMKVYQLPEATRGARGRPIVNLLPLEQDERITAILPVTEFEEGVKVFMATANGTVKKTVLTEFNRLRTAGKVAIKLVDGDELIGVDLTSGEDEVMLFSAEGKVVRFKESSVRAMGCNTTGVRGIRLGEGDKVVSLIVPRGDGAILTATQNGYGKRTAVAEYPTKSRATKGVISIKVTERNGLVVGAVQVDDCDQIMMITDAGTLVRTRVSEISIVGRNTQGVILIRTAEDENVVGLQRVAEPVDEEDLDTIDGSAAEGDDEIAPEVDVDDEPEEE

| Structure (SMILES) | single-stranded compared with double-stranded DNA breaks with gyrase (E. coli gyrase) | total DNA breaks with gyrase relative to topoisomerase IV (E. coli gyrase) | single-stranded compared with double-stranded DNA breaks with gyrase (B. anthracis gyrase) | total DNA breaks with gyrase relative to topoisomerase IV (B. anthracis gyrase) | DNA cleavage mediated by M. tuberculosis gyrase compared with zoliflodacin (M. tuberculosis gyrase) | double-stranded DNA breaks with gyrase relative to topoisomerase IV (E. coli gyrase) [times] | double-stranded DNA breaks with gyrase relative to topoisomerase IV (B. anthracis gyrase) [times] |
| --- | --- | --- | --- | --- | --- | --- | --- |
| CC1CN2c3c(cc4c(OCC5CCC(=O)N5)noc4c3F)CC3(C(=O)NC(=O)NC3=O)C2C(C)O1 (centres unmarked) [H3D-005722] | higher levels of single-stranded than double-stranded DNA breaks | higher levels of total DNA breaks mediated by gyrase over topoisomerase IV | higher levels of single-stranded than double-stranded DNA breaks | higher levels of total DNA breaks mediated by gyrase over topoisomerase IV | higher levels | – | – |
| C[C@@H]1CN2c3c(cc4c(N5C(=O)OC[C@@H]5C)noc4c3F)CC3(C(=O)NC(=O)NC3=O)[C@H]2[C@H](C)O1 [zoliflodacin, Zoliflodacin] | more gyrase-mediated single-stranded than double-stranded DNA breaks | 2.5 to 3 times | more gyrase-mediated single-stranded than double-stranded DNA breaks | 2.5 to 3 times | – | ~2 | ~2 |
